Test in all cases: inhibition of tumour cell growth, NCI panel, 48 h
Assay [1] has as its system ACHN renal.
For assay [2], the system named is CAKI-1 renal.
The test system of assay [3] is DLD-1 colon.
Assay [4] deals with KM12 colon.
Assay [5] has as its system M14 melanoma.
In assay [6] the test system is NCI-H226 lung.
Assay [7] relates to NCI-H23 lung.
In assay [8] the test system is OVCAR-3 ovarian.
In assay [9] the test system is OVCAR-5 ovarian.
Assay [10] relates to RXF 393 renal.
For assay [11], the system named is SF-268 CNS.
The test system of assay [12] is SK-MEL-5 melanoma.
For assay [13], the system named is SNB-19 CNS.
In assay [14] the test system is SR leukemia.
The test system of assay [15] is SW-620 colon.
Assay [16] concerns BT-549 breast.
The subject of assay [17] is MDA-N.
In assay [18] the test system is PC-3 prostate.
Assay [19] concerns T-47D breast.

Each structure is given as a SMILES string.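 Grown in 96-well plates, cells were treated for 48 hours with each compound at five concentrations. Insufficient inhibition: endpoint recorded as highest concentration tested. TGI: concentration producing complete growth inhibition.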

For the compound `COc1ccccc1C1C(Cl)C(=O)N1n1cnc2ccccc2c1=O` (stereo unspecified), the TGI in [1], in [2], in [3], in assay [4], in assay [5] and in assay [6] was more than 100 µM in each case. Further, the TGI in assay [7], in [8], in [9], in [10], in assay [11] and in assay [12] was more than 100 µM each time. Also, the TGI in [13], in assay [14] and in assay [15] was more than 100 µM throughout.
For the compound `NC1=NC2=c3ccccc3=C(c3cnccn3)C2(c2cnccn2)c2ccccc21` (stereo unspecified), the TGI in assay [1], in assay [2], in [3], in assay [4], in assay [5] and in [6] was more than 100 µM in each case. Further, the TGI was more than 100 µM in assay [7]; 81.4 µM in assay [8]; more than 100 µM in [9]; more than 100 µM in [10]; more than 100 µM in assay [11]; more than 100 µM in assay [12]. The TGI in [13], in assay [14] and in [15] was more than 100 µM throughout.
Regarding `COC(=O)[C@H](Cc1ccccc1)NC(=O)/C(=C/C(C)C)NC(=O)[C@H](CCSC)NC=O`, the TGI in [1], in assay [2], in assay [3], in assay [4], in assay [5] and in [6] was more than 100 µM in each case. For the same compound, the TGI in [7], in assay [8], in [10], in [11], in assay [12] and in assay [13] was more than 100 µM throughout. The TGI in assay [14] and in assay [15] was more than 100 µM in each case.
Take `CC(=O)OC1CC2CCN3C(=O)c4cc5c(cc4[C@H](C1OC(C)=O)C23)OCO5` (stereo partly specified): the TGI in assay [1], in assay [3], in assay [4], in [5], in assay [6] and in assay [7] was more than 100 µM each time. For the same compound, the TGI in assay [8], in assay [10], in assay [11], in assay [13], in assay [14] and in [15] was more than 100 µM throughout.
On to `CC1=NN(C(=O)c2ccccc2O)C(=O)/C1=C/c1cccc(O)c1`, for which the TGI in assay [1] was more than 100 µM; in assay [16], more than 100 µM; in assay [2] it was more than 100 µM; in assay [3], more than 100 µM; in assay [4], more than 100 µM; in [5], 37 µM. Besides, the TGI in [17] was more than 100 µM; in [6], 83.2 µM; in assay [9] it was more than 100 µM; in [18], more than 100 µM; in assay [11], more than 100 µM; in [12], more than 100 µM. In addition, the TGI in [13], in assay [14], in assay [15] and in assay [19] was more than 100 µM throughout.
With `CC(C)(C)OC(=O)N[C@H]1CC(O)c2ccccc2N(CC(=O)O)C1=O` (stereo partly specified), the TGI in assay [1], in [2], in assay [3], in assay [4], in assay [5] and in assay [6] was more than 100 µM in each case. Further, the TGI in assay [7], in [8], in [10], in assay [11], in assay [12] and in [13] was more than 100 µM throughout. Besides, the TGI in [14] and in assay [15] was more than 100 µM each time.

These data come from PubChem BioAssay (NCI).
